Laboratory results: patent US12698467B2, “Tissue engineered scaffolds, instrumented bioreactors and methods of use thereof” (President and Fellows of Harvard College, priority 2018, dated 2026)
“Also recorded” adds a separate entry of the source.

Experiments:
[1] = tested on: neonatal rat ventricular myocyte (NRVM) tissue-engineered ventricles; experiment: β-adrenergic response of tissue-engineered NRVM ventricles by pressure-volume catheterization; type: cell-based
Protocol: (§1) Intra-ventricular pressure and volume were measured simultaneously using a Millar MPVS-Ultra single segment foundation system for rats with SPR-869NR rat pressure-volume (PV) catheters (ADInstruments, Colorado Springs, CO). Catheter calibration and PV experiments were performed in freshly prepared Tyrode's solution. First, tissue-engineered ventricles were transferred to a 3.5 cm petri dish mounted on a temperature-controlled stage (Warner Instruments, Hamden Conn.) to maintain 35° C. working temperature. Ventricles were sutured to silicone tubing through which catheters were inserted (FIG. 12A). Data acquired at a sampling rate of 2,000 samples per second using manufacturer-supplied acquisition systems (Millar MPVS ultra, ADInstruments LabChart) and was exported for post-processing with custom Matlab scripts (MathWorks, Natick MA).
(§2) Catheter calibration. Catheters were equilibrated at 35° C. prior to use and calibrated for pressure using a manometer (Meriam M2; Meriam Process Technologies, Cleveland, OH) and volume using manufacturer-supplied cuvettes (Millar P/N 910-1048). […] Separate scaffold-specific calibrations were performed, where cell-free scaffolds were inflated and deflated by manual application of pressure through a solution-filled syringe connected to the ventricle through a junction port. […] In some cases, pressure or volume signal noise and drift were reduced by post-processing using Matlab's smooth and polyfit functions (FIG. 12C). Pressure and volume signals were normalized by polynomial background subtraction to reduce unwanted signal drift from large data sets, clarifying frequency-domain analysis of ventricle beat rates over these time periods (FIGS. 13A-13D).
(§3) β-adrenergic response of tissue-engineered ventricles. The contractile response of tissue-engineered ventricles to increasing concentrations of the β-adrenergic agonist isoproterenol was measured as follows. A 100 mM stock solution of isoproterenol (Sigma-Aldrich) containing 110 μM ascorbic acid (Sigma-Aldrich) and 45 μM EDTA (Sigma-Aldrich) was prepared in Tyrode's solution and stored at −20° C. […]

[2] = tested on: human induced pluripotent stem cell-derived cardiomyocyte (hiPSC-CM) tissue-engineered ventricles; experiment: β-adrenergic response of tissue-engineered hiPSC-CM ventricles by pressure-volume catheterization; type: cell-based
Protocol: as §1, §2, §3

CC(C)NCC(O)c1ccc(O)c(O)c1 (stereo not drawn) [isoproterenol]
chronotropic response of ventricle beat rate ([1]; NRVM ventricles, 1 e^−10 M to 1 e^−4 M, cumulative doses): positive chronotropic response | increase of ventricle beat rate ([1]; NRVM ventricles, 10^−4 M isoproterenol, compared to spontaneous baseline (no Iso)): ~ 40% | effect on stroke work (pressure/volume loops) ([1]; rat (NRVM) ventricles, before vs after isoproterenol exposure): reduction in stroke work; also recorded: reduced stroke work | chronotropic response of ventricle beat rate ([2]; hiPSC-CM ventricles, 1 e^−10 M to 1 e^−4 M, cumulative doses): positive chronotropic response | increase of ventricle beat rate ([2]; hiPSC-CM ventricles, 10^−4 M isoproterenol, compared to spontaneous baseline (no Iso)): ~ 40% | effect on stroke work (pressure/volume loops) ([2]; human (hiPSC-CM) ventricles, before vs after isoproterenol exposure): reduction in stroke work; also recorded: reduced stroke work
